The results in this text go back to patent publication US20200369626A1 (Washington University, priority 2019, published 2020).

What is called IC50 is the concentration that gives 50% inhibition.

The target of this test is T1, S1PR2 (Homo sapiens, UniProt O95136).
T1 construct: purchased
Kind of test: competitive [^32P]S1P binding assay on cell membranes, S1PR2. The conditions noted are these: Table 5; read-out: IC50 S1PR2.

Bounds are passed on as bounds.

T1 sequence (O95136 whole entry): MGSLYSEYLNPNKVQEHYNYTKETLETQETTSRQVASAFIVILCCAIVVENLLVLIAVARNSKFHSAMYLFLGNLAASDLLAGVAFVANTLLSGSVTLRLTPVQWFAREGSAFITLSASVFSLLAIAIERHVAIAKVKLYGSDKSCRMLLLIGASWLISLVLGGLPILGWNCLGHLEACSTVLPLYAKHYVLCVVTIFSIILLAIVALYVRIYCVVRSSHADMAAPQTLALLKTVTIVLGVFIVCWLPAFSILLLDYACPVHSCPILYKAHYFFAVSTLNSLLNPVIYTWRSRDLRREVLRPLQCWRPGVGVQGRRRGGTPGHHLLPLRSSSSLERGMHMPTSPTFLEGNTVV
Method: The test compounds were dissolved in DMSO and diluted into test samples with increasing concentrations with assay buffer. Commercial cell membranes expressing recombinant human S1PR were diluted with assay buffer to make a 20-40 μg/mL of solution. […] The plate was incubated for 60 min at room temperature with shaking and terminated by collecting the membranes onto 96-well glass fiber (GF/B) filtration plates (Millipore, Billerica, Mass.). Each filter was washed with 200 μL of assay buffer for a total of five washes. […] The IC50 values were fitted from GraphPad Prism 6 using one site Nonlinear Regression.

On to `CCC(CC)CC1(O)CCN(C(=O)Nc2nc(Oc3ccc(F)cc3)cc(Oc3ccc(F)cc3)n2)CC1` [TZ57-007], for which the IC50 was above 1000 nM. Turning to `CCC(CC)CC1(O)CCN(C(=O)Nc2cc(Oc3ccc(F)cc3)cc(N3CCN(C)CC3)c2)CC1` [TZ57-013], the IC50 is above 1000 nM.

For `CCC(CC)CC1(O)CCN(C(=O)Nc2cc(Oc3ccc(F)cc3)cc(-n3cccn3)c2)CC1` [TZ57-016], the 50% inhibitory concentration (IC50) is above 1000 nM. As for `CC(C)CC1(O)CCN(C(=O)Nc2cc(Oc3ccc(S(C)(=O)=O)cc3)cc(Oc3ccc(F)nc3)c2)CC1` [TZ57-040], the figure is 211 ± 32 nM. Take `CCC(CC)CC1(O)CCN(C(=O)Nc2cc(Oc3ccc(S(C)(=O)=O)cc3)cc(Oc3ccc(F)nc3)c2)CC1` [TZ57-041]: the half-maximal inhibitory concentration (IC50) is 198 ± 45 nM. Take `CC(C)CC1(O)CCN(c2nc3cc(Oc4ccc(F)cc4)cc([N+](=O)[O-])c3o2)CC1` [TZ57-045]: the half-inhibitory concentration (IC50) was above 1000 nM. Take `CS(=O)(=O)c1ccc(Oc2nc(NC(=O)N3CCc4ccccc4C3)nc(C(F)(F)F)n2)cc1` [TZ57-047]: the IC50 is above 1000 nM. As for `CCC(CC)CC1(OC)CCN(C(=O)Nc2cc(Oc3ccc(F)cc3)cc(Oc3ccc(S(C)(=O)=O)cc3)c2)CC1` [TZ57-054], the figure is above 1000 nM; as for `CS(=O)(=O)c1ccc(Oc2cc(NC(=O)N(CCO)C3CCCCC3)cc(Oc3ccc(F)cc3)c2)cc1` [TZ57-062], above 1000 nM; as for `CC(C)C(=O)C1CCN(C(=O)Nc2cc(Oc3ccc(F)cc3)cc(Oc3ccc(S(C)(=O)=O)cc3)c2)CC1` [TZ57-063], above 1000 nM.

Regarding `CC(C)C(O)C1CCN(C(=O)Nc2cc(Oc3ccc(F)cc3)cc(Oc3ccc(S(C)(=O)=O)cc3)c2)CC1` (stereo not shown) [TZ57-065], the IC50 is above 1000 nM.

As for `CCC(CC)CC1(O)CCN(C(=O)Nc2cc(Oc3ccc(F)cc3)cc(OC3CCN(C(C)=O)CC3)c2)CC1` [TZ57-080], the IC50 was above 1000 nM. For `CCC(CC)CC1(O)CCN(C(=O)Nc2cc(Oc3ccc(F)cc3)cc(OC3CCN(S(C)(=O)=O)CC3)c2)CC1` [TZ57-081] the value was 292 ± 121 nM; for `CS(=O)(=O)c1ccc(Oc2cc(NC(=O)N3CC[C@@]4(O)CCCC[C@H]4C3)cc(Oc3ccc(F)cc3)c2)cc1` [TZ57-091], above 1000 nM. As for `CNC(=O)c1ccc(Oc2cc(NC(=O)N3CC[C@@]4(O)CCCC[C@H]4C3)cc(Oc3ccc(F)cc3)c2)cc1` [TZ57-096], the IC50 is above 1000 nM.

As to `CCC(CC)CC1(O)CCN(C(=O)Nc2ccc(Oc3ccc(F)cc3)cc2)CC1` [TZ57-103], the half-maximal inhibitory concentration (IC50) was above 1000 nM. Regarding `CCC(CC)CC1(O)CCN(C(=O)Nc2ccc(Oc3ccc(S(C)(=O)=O)cc3)cc2)CC1` [TZ57-104], the half-maximal inhibitory concentration (IC50) is above 1000 nM.

Take `CC(C)CC1(O)CCN(C(=O)Nc2ccc(NC(=O)N3CCC(O)(CC(C)C)CC3)cc2)CC1` [TZ57-112]: the IC50 was above 1000 nM. For `CC(C)CC1(O)CCN(C(=O)Nc2cccc(NC(=O)N3CCC(O)(CC(C)C)CC3)c2)CC1` [TZ57-115] the value was above 1000 nM; for `CC(C)CC1(O)CN(C(=O)Nc2cc(Oc3ccc(F)cc3)cc(Oc3ccc(S(C)(=O)=O)cc3)c2)C1` [TZ57-119], above 1000 nM. As for `CC(C)CC1(O)CCN(C(=O)Nc2cc(Oc3ccc(F)cc3)cc(Oc3ccc(S(C)(=O)=O)cc3)c2)C1` (stereo not shown) [TZ57-120], the figure is 122 ± 29 nM; as for `CC(C)CC1(O)CC(C(=O)Nc2cc(Oc3ccc(F)cc3)cc(Oc3ccc(S(C)(=O)=O)cc3)c2)C1` (stereo not shown) [TZ57-121], 654 ± 349 nM.

Regarding `CNC(=O)c1ccc(Oc2cc(NC(=O)N3CCC(O)(CC(C)C)C3)cc(Oc3ccc(F)cc3)c2)cc1` (stereo not shown) [TZ57-122], the IC50 is 77 ± 16 nM. Regarding `CCC(CC)CC1(O)CCN(C(=O)Nc2cc(Oc3ccc(B4OC(C)(C)C(C)(C)O4)cc3)cc(Sc3ccc(S(C)(=O)=O)cc3)c2)CC1` [TZ57-150], the concentration for half-maximal inhibition (IC50) is above 1000 nM.

`CCC(CC)CC1(O)CCN(C(=O)Nc2cc(Oc3ccc(S(C)(=O)=O)cc3)cc(Sc3ccc(F)cc3)c2)CC1` [TZ57-155]: the concentration for half-maximal inhibition (IC50) was 143 ± 30 nM. For `CCC(CC)CC1(O)CCN(C(=O)Nc2cc(Sc3ccc(F)cc3)cc(Sc3ccc(S(C)(=O)=O)cc3)c2)CC1` [TZ57-158] the value was 67 ± 10 nM; for `CCC(CC)CC1(O)CCN(C(=O)Nc2cc(C)cc(Oc3ccc(S(C)(=O)=O)cc3)c2)CC1` [TZ59-008], above 1000 nM. With `CCC(CC)CC1(O)CCN(C(=O)Nc2cc(C#N)cc(Oc3ccc(S(C)(=O)=O)cc3)c2)CC1` [TZ59-014], the IC50 is above 1000 nM. Turning to `CCC(CC)CC1(O)CCN(C(=O)Nc2cc(C(C)C)c3c(C)nn(C)c3n2)CC1` [TZ59-023], the IC50 is above 1000 nM. As for `CCC(CC)CC1(O)CCN(C(=O)Nc2cc(NC(=O)N3CCC(O)(CC(CC)CC)CC3)cc(C(F)(F)F)c2)CC1` [TZ59-039], the half-maximal inhibitory concentration (IC50) is above 1000 nM. For `CCC(CC)CC1(O)CCN(C(=O)Nc2cc(F)cc(C(F)(F)F)c2)CC1` [TZ59-042] the value was above 1000 nM; for `CCC(CC)CC1(O)CCN(C(=O)Nc2cc(OCCF)cc(C(F)(F)F)c2)CC1` [TZ59-044], above 1000 nM; for `CCC(CC)CC1(O)CCN(C(=O)Nc2cc(OC)cc(C(F)(F)F)c2)CC1` [TZ59-046], above 1000 nM. As for `CCC(CC)CC1(O)CCN(C(=O)Nc2cc(N(C(=O)OC(C)(C)C)c3ccc(S(C)(=O)=O)cc3)cc(C(F)(F)F)c2)CC1` [TZ59-061], the figure is above 1000 nM; as for `CCC(CC)CC1(O)CCN(C(=O)Nc2cc(Nc3ccc(S(C)(=O)=O)cc3)cc(C(F)(F)F)c2)CC1` [TZ59-062], above 1000 nM. `CCC(CC)CC1(O)CCN(C(=O)Nc2cc(F)cc(C(O)c3ccc(S(C)(=O)=O)cc3)c2)CC1` (stereo not shown) [TZ59-080]: the half-maximal inhibitory concentration (IC50) is above 1000 nM. For `CCC(CC)CC1(O)CCN(C(=O)Nc2cc(C(=O)c3ccc(C(=O)NC)cc3)cc(C(F)(F)F)c2)CC1` [TZ59-089] the value was above 1000 nM. As for `CCC(CC)CC1(O)CCN(C(=O)Nc2cc(C(=O)c3ccc(S(C)(=O)=O)cc3)cc(C(F)(F)F)c2)CC1` [TZ59-092], the figure is 700 ± 111 nM; as for `CCC(CC)CC1(O)CCN(C(=O)Nc2cc(C(=O)c3ccc(S(C)(=O)=O)cc3)cc(C(F)(F)F)c2)CC1` [TZ59-093], above 1000 nM. As for `COc1ccc(-n2c(=O)c3ccccc3n(CC(=O)Nc3cc(Cl)c(OC)cc3OC)c2=O)cc1` [TZ59-110], the figure is above 1000 nM; as for `COc1cc(OC)c(NC(=O)Cn2c(=O)n(CC(=O)Nc3cc(Cl)nc(Cl)c3)c(=O)c3ccccc32)cc1Cl` [TZ59-112, N-(5-Chloro-2,4-dimethoxyphenyl)-2-(3-(2-((2,6-dichloropyridin-4-yl)amino)-2-oxoethyl)-2,4-dioxo-3,4-dihydroquinazolin-1(2H)-yl)acetamide], above 1000 nM; as for `COc1cc(OC)c(NC(=O)Cn2c(=O)n(CC(=O)Nc3ccc(O)cc3)c(=O)c3ccccc32)cc1Cl` [TZ59-124, N-(5-Chloro-2,4-dimethoxyphenyl)-2-(3-(2-((4-hydroxyphenyl)amino)-2-oxoethyl)-2,4-dioxo-3,4-dihydroquinazolin-1(2H)-yl)acetamide], 2.6 ± 0.3 nM. For `COc1cc(OC)c(NC(=O)Cn2c(=O)n(CC(=O)NCCO)c(=O)c3ccccc32)cc1Cl` [TZ59-130, N-(5-Chloro-2,4-dimethoxyphenyl)-2-(3-(2-((2-hydroxyethyl)amino)-2-oxoethyl)-2,4-dioxo-3,4-dihydroquinazolin-1(2H)-yl)acetamide], the IC50 was 66.6 ± 10.3 nM.
